The record followed here is ChEMBL document CHEMBL1201862, “PubChem BioAssay data set” (2004).

Test [1] has as its target T1, Short transient receptor potential channel 4 (Mus musculus, UniProt Q9QUQ5).
T1 sequence (Q9QUQ5 whole entry): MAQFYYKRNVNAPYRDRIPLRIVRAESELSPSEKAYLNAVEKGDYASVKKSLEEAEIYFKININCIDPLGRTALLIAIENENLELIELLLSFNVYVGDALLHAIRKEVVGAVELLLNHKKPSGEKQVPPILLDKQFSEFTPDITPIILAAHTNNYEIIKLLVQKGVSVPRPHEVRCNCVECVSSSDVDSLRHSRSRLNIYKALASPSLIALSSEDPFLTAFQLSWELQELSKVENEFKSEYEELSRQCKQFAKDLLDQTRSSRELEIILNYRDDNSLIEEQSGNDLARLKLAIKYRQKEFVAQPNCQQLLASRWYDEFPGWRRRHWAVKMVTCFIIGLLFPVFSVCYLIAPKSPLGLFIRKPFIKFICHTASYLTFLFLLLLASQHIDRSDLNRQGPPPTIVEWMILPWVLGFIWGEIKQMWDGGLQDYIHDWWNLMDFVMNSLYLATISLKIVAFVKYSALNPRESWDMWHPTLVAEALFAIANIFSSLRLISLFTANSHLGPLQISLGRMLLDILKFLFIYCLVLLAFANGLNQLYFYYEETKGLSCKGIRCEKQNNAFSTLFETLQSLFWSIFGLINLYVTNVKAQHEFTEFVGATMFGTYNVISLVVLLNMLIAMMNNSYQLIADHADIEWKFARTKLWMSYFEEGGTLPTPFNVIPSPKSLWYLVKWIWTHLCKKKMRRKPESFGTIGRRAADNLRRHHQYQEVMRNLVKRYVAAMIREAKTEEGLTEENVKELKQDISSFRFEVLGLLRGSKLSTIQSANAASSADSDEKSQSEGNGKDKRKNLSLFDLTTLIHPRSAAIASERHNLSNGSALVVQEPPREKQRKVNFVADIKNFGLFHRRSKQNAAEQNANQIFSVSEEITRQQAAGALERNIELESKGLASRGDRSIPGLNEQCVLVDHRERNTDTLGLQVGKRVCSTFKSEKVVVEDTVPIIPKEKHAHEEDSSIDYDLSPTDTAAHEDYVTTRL
The test can be described thus: mouse TRPC4 channel activators, dose response, cell-based, HEK293 TRPC4/mu-opioid, Fluo-4 calcium (AID 434937). In kind it is functional.

Test [2] concerns the target T2, DNA repair and recombination protein RAD54-like (Homo sapiens, UniProt Q92698).
T2 sequence (Q92698 whole entry): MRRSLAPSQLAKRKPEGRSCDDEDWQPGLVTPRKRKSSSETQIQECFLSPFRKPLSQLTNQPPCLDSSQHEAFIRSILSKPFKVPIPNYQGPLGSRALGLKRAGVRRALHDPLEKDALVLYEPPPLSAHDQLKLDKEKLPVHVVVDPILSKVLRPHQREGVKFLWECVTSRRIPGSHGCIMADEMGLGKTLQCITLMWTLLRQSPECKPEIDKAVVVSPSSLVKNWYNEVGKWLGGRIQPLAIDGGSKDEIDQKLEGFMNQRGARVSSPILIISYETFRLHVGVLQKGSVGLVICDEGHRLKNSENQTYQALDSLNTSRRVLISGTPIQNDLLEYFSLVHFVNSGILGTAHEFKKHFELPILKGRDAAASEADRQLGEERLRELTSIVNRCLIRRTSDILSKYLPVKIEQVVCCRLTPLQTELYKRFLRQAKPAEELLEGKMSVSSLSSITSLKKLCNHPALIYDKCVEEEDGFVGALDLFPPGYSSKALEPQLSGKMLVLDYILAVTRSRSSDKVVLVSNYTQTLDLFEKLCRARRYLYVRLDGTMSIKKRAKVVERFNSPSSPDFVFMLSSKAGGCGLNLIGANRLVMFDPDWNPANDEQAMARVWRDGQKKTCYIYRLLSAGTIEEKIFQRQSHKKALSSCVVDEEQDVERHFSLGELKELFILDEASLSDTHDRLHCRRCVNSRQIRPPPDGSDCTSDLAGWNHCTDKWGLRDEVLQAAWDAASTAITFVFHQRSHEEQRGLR
The test can be described thus: inhibitors of human RAD54 branch migration, confirmation, biochemical, fluorescence, cherry-picked samples, dose series (AID 651657). The class given is functional.

Test [3] addresses Peroxisome proliferator-activated receptor gamma/Nuclear receptor coactivator 1 (Homo sapiens, UniProt P37231). The test can be described thus: TR-FRET dose response biochemical High Throughput Screening assay for agonists of the steroid receptor coactivator 1 (SRC-1) recruitment by the peroxisome proliferator-activated receptor gamma (PPAR gamma): non-selective agonists. [Related pubchem assays (depositor defined):AID1300, AID1808, AID504735, AID631]. The class given is protein assay. For orientation: TR-FRET usually uses a lanthanide donor and a delayed reading to cut background.

The target in test [4] is Peroxisome proliferator-activated receptor gamma/Nuclear receptor coactivator 3 (Homo sapiens, UniProt P37231). The test can be described thus: TR-FRET dose response biochemical High Throughput Screening assay for agonists of the steroid receptor coactivator 3 (SRC-3) recruitment by the peroxisome proliferator-activated receptor gamma (PPAR gamma): non-selective agonists. [Related pubchem assays: 1301 (Confirmation screen.), 1048 (Primary screen.)]. The class given is functional.

The target of test [5] is Peroxisome proliferator-activated receptor gamma/Nuclear receptor coactivator 2 (Homo sapiens, UniProt P37231). The test can be described thus: TR-FRET dose response biochemical High Throughput Screening assay for agonists of the steroid receptor coactivator 2 (SRC-2) recruitment by the peroxisome proliferator-activated receptor gamma (PPAR gamma): non-selective agonists. [Related pubchem assays: 1297, 1032 ]. The class given is functional.

In test [6] the target is T1, Short transient receptor potential channel 4. The test can be described thus: mouse TRPC4 channel inhibitors, dose response, cell-based, HEK293 TRPC4/mu-opioid, Fluo-4 calcium (AID 434942).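 Further: potency of inhibitors blocking the TRPC4 calcium response.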 The class given is functional.
For test [7], the target named is T3, Heat shock factor protein 1 (Mus musculus, UniProt P38532).
T3 sequence (P38532 whole entry): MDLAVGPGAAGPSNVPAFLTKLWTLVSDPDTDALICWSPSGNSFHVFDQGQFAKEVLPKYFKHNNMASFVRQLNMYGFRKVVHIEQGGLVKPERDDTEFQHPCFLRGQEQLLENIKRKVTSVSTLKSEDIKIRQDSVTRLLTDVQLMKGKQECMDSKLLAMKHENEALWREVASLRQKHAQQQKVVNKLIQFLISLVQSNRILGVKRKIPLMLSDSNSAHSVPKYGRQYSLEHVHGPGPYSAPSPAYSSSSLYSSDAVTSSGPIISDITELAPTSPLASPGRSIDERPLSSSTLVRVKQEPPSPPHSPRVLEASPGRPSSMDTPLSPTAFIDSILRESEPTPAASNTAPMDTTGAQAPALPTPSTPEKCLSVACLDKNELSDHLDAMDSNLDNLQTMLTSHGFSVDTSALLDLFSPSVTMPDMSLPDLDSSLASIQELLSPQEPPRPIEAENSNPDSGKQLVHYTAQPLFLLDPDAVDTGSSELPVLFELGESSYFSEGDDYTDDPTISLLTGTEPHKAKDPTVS
The test can be described thus: inhibition of MG132-induced HSE-luciferase signal, confirmation, cell-based, NIH3T3, luminescence, dose retest (AID 2382).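 Further: NIH3T3 fibroblasts with HSF1-driven luciferase reporter stressed by proteasome inhibitor MG132; luminescence from HSF1-driven luciferase expression after 8 hours of MG132 stress.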 In kind it is functional.

Test [8] concerns the target T4, DNA repair protein RAD52 homolog (Homo sapiens, UniProt P43351).
T4 sequence (P43351 whole entry): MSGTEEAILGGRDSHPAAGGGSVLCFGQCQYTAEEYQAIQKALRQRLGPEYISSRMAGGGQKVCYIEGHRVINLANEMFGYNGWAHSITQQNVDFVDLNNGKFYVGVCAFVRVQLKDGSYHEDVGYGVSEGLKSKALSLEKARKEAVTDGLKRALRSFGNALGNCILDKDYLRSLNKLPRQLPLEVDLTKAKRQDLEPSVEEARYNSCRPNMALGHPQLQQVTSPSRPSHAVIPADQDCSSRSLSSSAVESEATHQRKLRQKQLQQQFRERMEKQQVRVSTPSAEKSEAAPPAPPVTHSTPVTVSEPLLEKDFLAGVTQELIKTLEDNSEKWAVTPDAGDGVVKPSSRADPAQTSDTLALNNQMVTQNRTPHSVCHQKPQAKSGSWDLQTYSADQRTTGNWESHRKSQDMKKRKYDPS
In kind it is functional, biochemical.

Test [9] concerns the target Genome polyprotein (dengue virus type 2, UniProt P29990). The test can be described thus: Dengue-2 NS5 methyltransferase inhibitors, primary screen, biochemical, confirmation dose response (AID 588689). In kind it is functional.
Test [10] is described as follows: inhibitors of intracellular T. cruzi replication, confirmation, NIH3T3 host cells, beta-gal luminescence (AID 2044).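 Further: intracellular parasites grown in NIH/3T3 mouse fibroblasts as host cells; luminescent beta-galactosidase reporter signal from transgenic T. cruzi replicating inside host cells; inhibitors lower the luminescence signal.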 The class given is functional, cell-based.
The nature of test [11]: cytotoxicity toward NIH3T3 fibroblasts, dose response, counter-screen, cell-based, ATP luminescence, mouse fibroblasts (AID 2010).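 Further: cells exposed to compound for about 90 hours before reading.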 In kind it is functional. Particulars: NIH3T3. For orientation: A counterscreen serves to expose hits that act by an unwanted route or on another target.
For test [12], the target named is T5, Mannose-6-phosphate isomerase (Homo sapiens, UniProt P34949).
T5 sequence (P34949 whole entry): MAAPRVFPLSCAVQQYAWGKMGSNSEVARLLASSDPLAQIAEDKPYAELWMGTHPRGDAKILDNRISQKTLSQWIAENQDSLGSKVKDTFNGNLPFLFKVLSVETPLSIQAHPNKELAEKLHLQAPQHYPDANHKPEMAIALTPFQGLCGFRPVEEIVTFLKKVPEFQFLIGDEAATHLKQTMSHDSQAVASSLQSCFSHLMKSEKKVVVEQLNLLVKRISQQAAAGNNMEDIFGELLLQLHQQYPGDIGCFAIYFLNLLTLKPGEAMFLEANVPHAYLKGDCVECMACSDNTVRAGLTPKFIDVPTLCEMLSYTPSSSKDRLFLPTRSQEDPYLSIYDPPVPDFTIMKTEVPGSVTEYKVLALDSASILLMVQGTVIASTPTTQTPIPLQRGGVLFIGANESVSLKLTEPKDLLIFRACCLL
The test can be described thus: human PMI inhibitors, high substrate, primary screen, biochemical, fluorescence intensity, high mannose 6-phosphate (AID 1220).

The target of test [13] is DNA dC->dU-editing enzyme APOBEC-3G (Homo sapiens, UniProt Q9HC16). The test can be described thus: Dose Response confirmation of small molecule APOBEC3G DNA Deaminase Inhibitors via a fluorescence-based single-stranded DNA deaminase assay. [Related pubchem assays (depositor defined):AID493012, AID493028]. In kind it is functional.
Test [14] in a line: growth suppression of PTEN-null colon cells, dose response, cell-based, HCT116 PTEN knockout (AID 1047).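 Further: HCT116 colon tumor cells with PTEN knocked out; cells exposed to compound for 60 hours before readout; potency for loss of cell viability measured by luminescence.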 The class given is functional.
Test [15] is described as follows: growth suppression of beta-catenin-knockout colon cells, dose response, cell-based, HCT116, human colon tumor (AID 1045).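 Further: HCT116 colon tumor cells with beta catenin knocked out; cells exposed to compound for 60 hours.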 In kind it is functional.
Test [16] deals with Glucose-6-phosphate 1-dehydrogenase (Homo sapiens, UniProt P11413). The test can be described thus: human G6PD enzyme inhibitors, dose response, selectivity assay for P. falciparum G6PD inhibitor project, biochemical, fluorescence (AID 504792). In kind it is functional.

The source made the active and inactive calls.

Chain of Peroxisome proliferator-activated receptor gamma/Nuclear receptor coactivator 3 (P37231 whole entry): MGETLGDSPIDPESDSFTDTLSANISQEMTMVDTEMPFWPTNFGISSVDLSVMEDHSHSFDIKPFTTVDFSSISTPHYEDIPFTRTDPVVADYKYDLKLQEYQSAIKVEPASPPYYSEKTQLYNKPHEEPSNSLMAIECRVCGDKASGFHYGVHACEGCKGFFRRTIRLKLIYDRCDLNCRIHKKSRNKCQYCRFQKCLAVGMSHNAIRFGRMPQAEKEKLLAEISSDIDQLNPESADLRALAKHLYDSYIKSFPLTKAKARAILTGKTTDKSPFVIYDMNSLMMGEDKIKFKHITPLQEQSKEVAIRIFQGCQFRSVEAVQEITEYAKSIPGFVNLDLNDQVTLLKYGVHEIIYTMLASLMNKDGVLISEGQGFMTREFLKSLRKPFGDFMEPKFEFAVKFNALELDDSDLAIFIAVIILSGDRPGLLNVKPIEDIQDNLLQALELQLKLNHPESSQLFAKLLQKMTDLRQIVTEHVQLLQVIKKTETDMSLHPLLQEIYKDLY
Chain of Peroxisome proliferator-activated receptor gamma/Nuclear receptor coactivator 3 (Q9Y6Q9 whole entry, further chain): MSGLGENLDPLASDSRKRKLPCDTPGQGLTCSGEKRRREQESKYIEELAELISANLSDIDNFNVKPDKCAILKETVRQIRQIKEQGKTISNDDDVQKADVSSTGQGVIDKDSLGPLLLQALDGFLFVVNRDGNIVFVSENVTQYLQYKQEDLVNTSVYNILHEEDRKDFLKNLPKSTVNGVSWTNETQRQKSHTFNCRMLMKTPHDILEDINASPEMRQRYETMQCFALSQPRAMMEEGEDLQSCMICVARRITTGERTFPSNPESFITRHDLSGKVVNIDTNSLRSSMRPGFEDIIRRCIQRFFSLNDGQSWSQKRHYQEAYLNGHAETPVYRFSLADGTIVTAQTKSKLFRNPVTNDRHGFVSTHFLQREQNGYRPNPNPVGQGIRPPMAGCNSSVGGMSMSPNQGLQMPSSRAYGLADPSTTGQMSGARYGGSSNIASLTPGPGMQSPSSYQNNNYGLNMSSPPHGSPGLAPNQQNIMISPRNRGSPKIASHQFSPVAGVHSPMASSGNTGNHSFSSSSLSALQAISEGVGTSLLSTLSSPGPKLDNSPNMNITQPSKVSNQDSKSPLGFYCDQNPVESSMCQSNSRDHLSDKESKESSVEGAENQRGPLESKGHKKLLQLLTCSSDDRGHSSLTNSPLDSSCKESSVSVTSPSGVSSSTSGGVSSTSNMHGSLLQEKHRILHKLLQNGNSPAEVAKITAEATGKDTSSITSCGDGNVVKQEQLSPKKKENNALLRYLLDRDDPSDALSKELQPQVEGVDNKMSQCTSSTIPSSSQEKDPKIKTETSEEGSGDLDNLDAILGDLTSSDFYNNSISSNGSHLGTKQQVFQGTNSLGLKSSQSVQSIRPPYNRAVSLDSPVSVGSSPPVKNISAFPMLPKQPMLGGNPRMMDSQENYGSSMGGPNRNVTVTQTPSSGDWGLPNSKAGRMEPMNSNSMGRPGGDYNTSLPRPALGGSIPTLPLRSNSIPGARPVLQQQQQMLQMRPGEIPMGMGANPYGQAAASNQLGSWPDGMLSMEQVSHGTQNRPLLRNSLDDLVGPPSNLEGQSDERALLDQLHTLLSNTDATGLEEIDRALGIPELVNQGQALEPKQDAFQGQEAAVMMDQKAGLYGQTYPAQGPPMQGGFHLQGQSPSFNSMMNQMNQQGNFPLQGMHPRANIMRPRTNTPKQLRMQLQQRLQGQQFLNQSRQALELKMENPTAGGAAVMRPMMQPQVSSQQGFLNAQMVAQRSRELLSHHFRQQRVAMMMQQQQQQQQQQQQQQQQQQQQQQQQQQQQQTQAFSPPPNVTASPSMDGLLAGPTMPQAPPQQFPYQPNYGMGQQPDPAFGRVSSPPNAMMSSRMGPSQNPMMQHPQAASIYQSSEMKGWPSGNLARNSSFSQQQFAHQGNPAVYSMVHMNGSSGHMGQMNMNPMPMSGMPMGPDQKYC
Chain of Peroxisome proliferator-activated receptor gamma/Nuclear receptor coactivator 2 (P37231 whole entry): as the sequence (P37231 whole entry) above
Chain of Peroxisome proliferator-activated receptor gamma/Nuclear receptor coactivator 2 (Q15596 whole entry, further chain): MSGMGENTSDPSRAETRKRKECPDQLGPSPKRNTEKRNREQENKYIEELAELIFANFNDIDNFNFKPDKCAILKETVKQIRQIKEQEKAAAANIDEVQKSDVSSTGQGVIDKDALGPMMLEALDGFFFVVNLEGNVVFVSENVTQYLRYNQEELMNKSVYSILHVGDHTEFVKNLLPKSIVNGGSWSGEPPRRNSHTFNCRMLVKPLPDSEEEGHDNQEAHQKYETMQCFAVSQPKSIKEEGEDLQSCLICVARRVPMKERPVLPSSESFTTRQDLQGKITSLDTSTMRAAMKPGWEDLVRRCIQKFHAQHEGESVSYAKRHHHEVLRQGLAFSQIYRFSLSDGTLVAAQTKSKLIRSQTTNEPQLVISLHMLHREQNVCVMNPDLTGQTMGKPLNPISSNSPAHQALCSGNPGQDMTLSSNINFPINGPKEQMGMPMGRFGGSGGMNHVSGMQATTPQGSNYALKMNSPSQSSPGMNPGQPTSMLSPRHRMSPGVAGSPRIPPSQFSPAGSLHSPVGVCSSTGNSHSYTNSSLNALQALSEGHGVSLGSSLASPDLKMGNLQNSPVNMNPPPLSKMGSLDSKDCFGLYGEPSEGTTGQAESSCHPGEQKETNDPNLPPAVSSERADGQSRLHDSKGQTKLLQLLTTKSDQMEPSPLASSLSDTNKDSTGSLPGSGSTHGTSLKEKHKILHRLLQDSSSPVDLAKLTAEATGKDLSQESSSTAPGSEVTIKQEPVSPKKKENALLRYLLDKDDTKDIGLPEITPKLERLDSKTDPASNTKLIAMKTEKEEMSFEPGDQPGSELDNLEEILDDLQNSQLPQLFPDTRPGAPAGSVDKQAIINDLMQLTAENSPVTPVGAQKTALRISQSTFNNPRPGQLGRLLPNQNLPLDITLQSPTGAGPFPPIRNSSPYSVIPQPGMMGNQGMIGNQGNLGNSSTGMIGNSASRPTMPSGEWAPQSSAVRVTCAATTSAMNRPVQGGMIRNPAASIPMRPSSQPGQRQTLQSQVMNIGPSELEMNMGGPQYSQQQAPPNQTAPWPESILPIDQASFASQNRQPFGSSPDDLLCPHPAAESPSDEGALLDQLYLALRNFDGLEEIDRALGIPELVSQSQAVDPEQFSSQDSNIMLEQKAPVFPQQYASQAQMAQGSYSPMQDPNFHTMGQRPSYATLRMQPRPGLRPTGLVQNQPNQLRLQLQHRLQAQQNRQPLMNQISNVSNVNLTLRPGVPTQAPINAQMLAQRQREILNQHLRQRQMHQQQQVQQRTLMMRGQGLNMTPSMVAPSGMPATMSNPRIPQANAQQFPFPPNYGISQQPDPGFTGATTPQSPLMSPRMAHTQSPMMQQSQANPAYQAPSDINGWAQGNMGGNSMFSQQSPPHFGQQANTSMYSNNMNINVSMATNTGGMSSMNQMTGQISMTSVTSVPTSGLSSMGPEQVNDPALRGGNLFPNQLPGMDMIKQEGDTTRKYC
Chain of Genome polyprotein (P29990 2492-3391 limits assumed): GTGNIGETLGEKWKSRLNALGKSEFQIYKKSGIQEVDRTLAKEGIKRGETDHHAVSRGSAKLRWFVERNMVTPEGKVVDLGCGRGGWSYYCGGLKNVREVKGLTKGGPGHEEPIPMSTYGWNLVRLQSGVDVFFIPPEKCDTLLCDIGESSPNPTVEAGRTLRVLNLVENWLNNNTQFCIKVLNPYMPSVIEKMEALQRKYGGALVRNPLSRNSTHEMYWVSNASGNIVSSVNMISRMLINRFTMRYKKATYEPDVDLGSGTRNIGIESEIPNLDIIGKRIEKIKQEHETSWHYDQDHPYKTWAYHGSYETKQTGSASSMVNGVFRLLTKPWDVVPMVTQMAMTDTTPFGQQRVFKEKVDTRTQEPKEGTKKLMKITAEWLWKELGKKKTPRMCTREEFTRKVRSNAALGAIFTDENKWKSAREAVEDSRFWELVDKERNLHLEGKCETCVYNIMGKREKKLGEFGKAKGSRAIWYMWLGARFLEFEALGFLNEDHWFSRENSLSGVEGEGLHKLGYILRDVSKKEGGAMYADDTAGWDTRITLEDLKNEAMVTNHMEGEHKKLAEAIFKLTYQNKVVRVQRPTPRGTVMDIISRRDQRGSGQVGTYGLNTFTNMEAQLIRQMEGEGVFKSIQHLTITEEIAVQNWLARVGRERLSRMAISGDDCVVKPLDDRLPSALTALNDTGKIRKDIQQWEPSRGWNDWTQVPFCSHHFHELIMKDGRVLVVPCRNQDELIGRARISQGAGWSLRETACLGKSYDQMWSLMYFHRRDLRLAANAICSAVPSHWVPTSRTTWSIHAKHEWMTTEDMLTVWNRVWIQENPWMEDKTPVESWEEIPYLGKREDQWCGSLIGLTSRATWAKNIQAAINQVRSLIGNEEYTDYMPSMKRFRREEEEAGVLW

The EC50 is the concentration that produces a half-maximal response. As a reminder, the AC50 is the midpoint of the concentration-response curve, whichever way the signal moves. As to `CN(C)CCNC(=O)c1c(NC(=O)c2ccccc2)sc2c1CCCC2`, the concentration for a half-maximal effect (EC50) in test [1] is 5.96 µM (active). Besides, the concentration at half-maximal activity (AC50) in [2] is 56.4 µM (active).

`CC(Nc1ccc(Br)cn1)c1cc(Cl)ccc1O` (stereo not given): the EC50 in test [3] is 6.3 µM (active); in test [4], 3.26 µM (active); in test [5], 4.73 µM (active).

Turning to `Cc1ccc(S(=O)(=O)NCCC(=O)NCC(c2ccco2)N2CCCCC2)cc1C` (stereo not given), the EC50 is 0.168 µM (active) in test [6] and 0.944 µM (active) in [1].

Turning to `COc1ccccc1Nc1nc(NCCCN(C)C)nc(N)c1[N+](=O)[O-]`, in [7], the half-maximal effective concentration (EC50) is recorded as > 195 µM (not active). The results for the AC50 in test [2] and in test [8] were 11.1 µM (active) and 5.59 µM (active), respectively.

A word on the IC50: it is the concentration needed to halve the response being measured. As to `Cc1ccc(S(=O)(=O)Nc2nc(-c3ccc(F)cc3)cs2)cc1`, the IC50 in test [9] was 70.6 µM (active).

With `CCN(CC)Cc1cc(Nc2ccnc3cc(Cl)ccc23)ccc1O`, the AC50 in test [2] is 10.3 µM (active); in test [8], 10 µM (active).

With `COc1cc(/C=C(\C#N)C(=O)Nc2ccccc2C(=O)O)cc(Cl)c1OC`, the EC50 in test [3] is > 79.4 µM (inactive); in test [4], 8.27 µM (active); in test [5] it was > 79.4 µM (not active). Further, the half-inhibitory concentration (IC50) in test [9] was 60.6 µM (active).

`Cc1cccc(N2CCN(Cc3ccoc3)CC2)c1C`: the EC50 in test [6] was 0.668 µM (active).

Turning to `O=C(Nc1nc2c(s1)COc1ccccc1-2)c1cccs1`, the results for the EC50 in test [3], in test [4] and in test [5] were 28.5 µM (inactive), > 79.4 µM (not active) and 19.7 µM (not active), respectively.

As for `Cc1onc(-c2c(F)cccc2Cl)c1C(=O)Nc1nnc(-c2ccccc2)s1`, the EC50 in test [3] is 446 µM (inactive); in test [4] it was > 79.4 µM (not active); in [5], 29.8 µM (not active).

For `Cc1nc([N+](=O)[O-])nn1C12CC3CC(CC(Br)(C3)C1)C2`, the EC50 in [10] was 0.105 µM (active); in test [11] it was > 60 µM (not active). In addition, the half-maximal inhibitory concentration (IC50) in [12] is 26.3 µM (active); in test [13] it was 49.6 µM (active).

As to `CCOc1ccccc1-n1c(SCC(=O)Nc2nccs2)nnc1-c1ccoc1C`, the EC50 in test [6] was 1.5 µM (active).

For `CC1=CC(=NOC(=O)/C=C/c2ccccc2)C=C(C)C1=O`, the 50% effective concentration (EC50) in [14] was 14 µM (active); in [15], 13.6 µM (active). In addition, the IC50 in [16] was > 80 µM (inactive).

With `Cc1ccc(C)c2c(N)c3c(nc12)CCCCC3.O=C(O)c1cncc(Br)c1`, the EC50 in test [6] was 0.944 µM (active).

On to `Cc1ccc(-c2csc3nc(SCC(=O)Nc4ccc(Cl)c(C(=O)O)c4)nc(O)c23)cc1`, for which the IC50 in [9] was 37 µM (active).

Turning to `O=C(CSc1nc(=O)n(CCN2CCOCC2)c2c1CCC2)Nc1ccc(OC(F)(F)F)cc1`, the EC50 in test [6] is 7.5 µM (active).
